# Patent EP0962138B1, “Pesticidal method” (BASF Agro B.V., Arnhem (NL), Wädenswil-Branch, priority 1998, dated 1999)
# Columns and labels:
# Otiorynchus sulcatus = assay: Compost incorporation test, protection of potted plants from weevil larvae (Example 1); type: in vivo; conditions: Thuya plicata Atrovirens
# Method: In a twenty-replicate test, Compound A was incorporated in compost by mixing a 2% w/w granule with the compost (Klasmann Substrat 2 (Peat based) ) using a small mechanical mixer. Plants of Thuya plicata Atrovirens were potted in the compost and allowed to grow for two months and then about 15 eggs of Otiorynchus sulcatus were added to the soil and covered with a small layer of compost. As a comparison, some compost was untreated and other compost was treated with the standard chlorpyrifos in the form of the commercial product suSCon Green®. After 27 days the soil was reinfested with 15 more eggs. The plant pots were enclosed such that the plants were exposed to light and the adult beetles which emerged could not escape.
# Of the twenty replicates of each test, five were assessed after 6 months and fifteen were assessed after 18 months for numbers of larvae and adults. After 6 months the following results were observed: […]
# vine weevil = assay: Curative drench treatment of infested potted plants (Example 2); type: in vivo; conditions: after 6 months, Fuchsia triphylla hybrid cv. Koralle
# Method: In 20-replicate tests, Fuchsia triphylla hybrid cv. Koralle was infested with 15 eggs per pot of vine weevil. Compound A in the form of an 80% water dispersible granule (Regent 800 WG) was suspended in water and added to each pot at the indicated rate per surface area of the pot at various dilutions. After 6 months, the trials were assessed. […] Drench Treatments
# [1] = Dose 75 g/m^3 in compost (suSCon Green), after 6 months, five replicates
# [2] = Dose 75 g/m^3 in compost (suSCon Green), after 18 months, fifteen replicates
# [3] = Dose 2.5 g/m^3 in compost, after 6 months, five replicates
# [4] = Dose 2.5 g/m^3 in compost, after 18 months, fifteen replicates
# [5] = Dose 5 g/m^3 in compost, after 6 months, five replicates
# [6] = Dose 5 g/m^3 in compost, after 18 months, fifteen replicates
# [7] = Dose 7.5 g/m^3 in compost, after 6 months, five replicates
# [8] = Dose 7.5 g/m^3 in compost, after 18 months, fifteen replicates
# [9] = Dose 15 g/m^3 in compost, after 6 months, five replicates
# [10] = Dose 15 g/m^3 in compost, after 18 months, fifteen replicates
structure (smiles),measurement,setting,value
"CCOP(=S)(OCC)Oc1nc(Cl)c(Cl)cc1Cl [Chlorpyrifos, chlorpyrifos, reference compound]",% Control,Otiorynchus sulcatus; [1],87%
same,Number per pot,Otiorynchus sulcatus; [1],0.8
same,Total # larvae,Otiorynchus sulcatus; [1],4
same,% Control,Otiorynchus sulcatus; [2],0%
same,% Survival of Plants,Otiorynchus sulcatus; [2],100%
same,Number per pot,Otiorynchus sulcatus; [2],3.1
same,Total # larvae,Otiorynchus sulcatus; [2],47
same,Total Dead Plants,Otiorynchus sulcatus; [2],0
"N#Cc1nn(-c2c(Cl)cc(C(F)(F)F)cc2Cl)c(N)c1[S+]([O-])C(F)(F)F (centres unmarked) [Compound A, 5-amino-1-(2,6-dichloro 4-trifluoromethylphenyl) 4-trifluoromethylsulfinyl-3-cyanopyrazole]",% Control,Otiorynchus sulcatus; [3],100%
same,Number per pot,Otiorynchus sulcatus; [3],0
same,Total # larvae,Otiorynchus sulcatus; [3],0
same,% Control,Otiorynchus sulcatus; [4],100%
same,% Survival of Plants,Otiorynchus sulcatus; [4],100%
same,Number per pot,Otiorynchus sulcatus; [4],0
same,Total # larvae,Otiorynchus sulcatus; [4],0
same,Total Dead Plants,Otiorynchus sulcatus; [4],0
same,% Control,Otiorynchus sulcatus; [5],100%
same,Number per pot,Otiorynchus sulcatus; [5],0
same,Total # larvae,Otiorynchus sulcatus; [5],0
same,% Control,Otiorynchus sulcatus; [6],100%
same,% Survival of Plants,Otiorynchus sulcatus; [6],100%
same,Number per pot,Otiorynchus sulcatus; [6],0
same,Total # larvae,Otiorynchus sulcatus; [6],0
same,Total Dead Plants,Otiorynchus sulcatus; [6],0
same,% Control,Otiorynchus sulcatus; [7],100%
same,Number per pot,Otiorynchus sulcatus; [7],0
same,Total # larvae,Otiorynchus sulcatus; [7],0
same,% Control,Otiorynchus sulcatus; [8],100%
same,% Survival of Plants,Otiorynchus sulcatus; [8],100%
same,Number per pot,Otiorynchus sulcatus; [8],0
same,Total # larvae,Otiorynchus sulcatus; [8],0
same,Total Dead Plants,Otiorynchus sulcatus; [8],0
same,% Control,Otiorynchus sulcatus; [9],100%
same,Number per pot,Otiorynchus sulcatus; [9],0
same,Total # larvae,Otiorynchus sulcatus; [9],0
same,% Control,Otiorynchus sulcatus; [10],100%
same,% Survival of Plants,Otiorynchus sulcatus; [10],100%
same,Number per pot,Otiorynchus sulcatus; [10],0
same,Total # larvae,Otiorynchus sulcatus; [10],0
same,Total Dead Plants,Otiorynchus sulcatus; [10],0
same,Protection of the plants compared with the commercial standard,vine weevil,protected the plants substantially better than the commercial standard fonofos
